Measurements reported in patent publication US9447136B2, “Semisynthetic derivatives of Nystatin A1” (BLIRT S.A., priority 2012, dated 2016).
In brackets after ≈: the same amount, converted by molar mass.

How the values were obtained:
[1] = tested on: Trichoderma viride LOCK E159; test: Antifungal activity in vitro, serial dilution in RPMI 1640; assay type: cell-based; settings: Table 2B
Method in brief: (§1)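 Serial dilution, RPMI 1640 pH 7.0 (M27-A2 reference method); A531 read-out. IC50 = interpolated conc. at 50% of control A531; MIC = lowest conc. with A531 ≤20% of control.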

[2] = tested on: Candida dubliniensis CBS 7987; test: as above; assay type: cell-based; settings: Table 2B
Method in brief: as §1

[3] = tested on: Candida albicans ATCC 10231; test: as above; assay type: cell-based
Method in brief: as §1

[4] = tested on: Aspergillus niger LOCK E201; test: as above; assay type: cell-based; settings: Table 2B
Method in brief: as §1

[5] = tested on: Candida lipolytica KKP 322; test: as above; assay type: cell-based; settings: Table 2B
Method in brief: as §1

[6] = tested on: Candida quilliermondii DSM 11947; test: as above; assay type: cell-based; settings: Table 2B
Method in brief: as §1

Candida krusei DSM 6128 = test: as above; assay type: cell-based; settings: Table 2A; RPMI 1640, pH 7.0
Method in brief: as §1

Candida arborea KKP 319 = test: as above; assay type: cell-based; settings: Table 2B
Method in brief: as §1

[7] = tested on: Candida glabrata DSM 11226; test: as above; assay type: cell-based; settings: Table 2A; RPMI 1640, pH 7.0
Method in brief: as §1

[8] = tested on: Candida pseudotropicalis KKP 324; test: as above; assay type: cell-based; settings: Table 2B
Method in brief: as §1

[9] = tested on: Candida parapsilosis DSM 5784; test: as above; assay type: cell-based; settings: Table 2B
Method in brief: as §1

[10] = tested on: Saccharomyces cerevisiae ATCC 9763; test: as above; assay type: cell-based
Method in brief: as §1

[11] = tested on: Candida stellatoidea CBS 1905; test: as above; assay type: cell-based; settings: Table 2B
Method in brief: as §1

[12] = tested on: Candida tropicalis KKP 334; test: as above; assay type: cell-based; settings: Table 2A; RPMI 1640, pH 7.0
Method in brief: as §1

Candida albicans STY7 = test: Antifungal activity towards resistant (MDR) strains; assay type: cell-based; settings: 5674 mutant derivative, deletion of CDR2
Procedure: (§2) The determination of antifungal activity was performed by the serial dilutions method in buffered RPMI 1640 medium, in a 96-wells microplates, according to the standard procedure (National Committee for Clinical Laboratory Standards. Reference method for broth dilution antifungal susceptibility testing of yeast, approved standard, 2nd ed. M27-A2 vol. 22 Wayne, Pa., 2002). The optical density of cells suspension was measured using a microplates reader (Victor^3, Perkin-Elmer) at the wavelength λ=660 nm (A660). On the basis of received results the diagrams on interrelation between the A660 value and the concentration of tested compound were made. From these graphs MIC values were read, that are the concentrations of tested compounds, in the presence at which A660 value is at most 20% of A660 value measured in control sample.

Candida albicans Gu5 = test: as above; assay type: cell-based; settings: fluconazole-resistant due to the overexpression of CDR1 and CDR2
Procedure: as §2

Candida albicans F5 = test: as above; assay type: cell-based; settings: fluconazole-resistant due to the overexpression of CaMDR1 and ERG11
Procedure: as §2

Candida albicans Gu4 = test: as above; assay type: cell-based; settings: fluconazole sensitive, parent strain for Gu5
Procedure: as §2

Candida albicans 5674 = test: as above; assay type: cell-based; settings: C. albicans 5674 overexpressing CDR1 and CDR2
Procedure: as §2

Candida albicans STY31 = test: as above; assay type: cell-based; settings: 5674 mutant derivative, deletion of CDR1 and CDR2
Procedure: as §2

Candida albicans B3 = test: as above; assay type: cell-based; settings: fluconazole sensitive, parent strain for B4
Procedure: as §2

Candida albicans F2 = test: as above; assay type: cell-based; settings: fluconazole sensitive, parent strain for F5
Procedure: as §2

Candida albicans STY19 = test: as above; assay type: cell-based; settings: 5674 mutant derivative, deletion of CDR1
Procedure: as §2

Candida albicans B4 = test: as above; assay type: cell-based; settings: fluconazole-resistant due to the overexpression of CaMDR1
Procedure: as §2

LLC-PK1 = test: Cytotoxic activity against mammalian cells in tissue culture (MTT); assay type: cell-based, pig
Procedure: For examinations were used selected cell lines: CCRF-CEM—human acute lymphoblastic leukemia; HepG2—human malignant hepatoma; LLC-PK1—epithelial cell of pig kidney; All lines were from ATCC collection.
The study are conducted using described below methods of culturing and determination of cytotoxic activity.
CCRF-CEM cells were cultured in medium RPMI 1640+10% fetal bovine serum (FBS), LLC-PK1 cells in medium Medium 199+3% FBS, HepG2 cells in medium MEM+10% FBS. All media contained 100 μg/ml of penicillin G and streptomycin. 24-wells microplates containing appropriate medium were inoculated with the cells in amount of 1.2×10^4 cells/well and allowed to stand overnight. Next, tested compounds as solution in dimethylsulfoxide (DMSO) were added in volume of 10 μl (serial 2× dilutions). To control well 10 μl of DMSO was added. Microplates with cell suspensions were incubated for 120 h at temperature 37° C. at atmosphere of 95%/5% CO2. After incubation, to all wells 200 μl of solution of 3-(4,5-dimethylthiazole-2-yl)-2,5-diphenylotetrazole bromide (MTT) in PBS (4 mg/ml) was added and plates were further incubated for 4 h at 37° C. Next, to dissolve crystals of formazane 1 ml of DMSO was added and absorption of solutions was measured at the wavelength λ=540 nm (A540), using a microplates reader (Victor^3, Perkin-Wallac). […] From these graphs IC50 values were read, that is concentration of tested compound in the presence at which A540 value is half of A540 value measured in the control sample.

HepG2 = test: as above; assay type: cell-based, human
Method in brief: (§3)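 Cells at 1.2×10^4/well were exposed to serial 2× DMSO dilutions for 120 h at 37 °C: CCRF-CEM in RPMI 1640 + 10% FBS, HepG2 in MEM + 10% FBS, LLC-PK1 in Medium 199 + 3% FBS. MTT was added for 4 h and A540 read. IC50 is the concentration halving A540 versus DMSO control.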

CCRF-CEM = test: as above; assay type: cell-based, human
Method in brief: as §3

Human erythrocytes = test: Hemotoxicity (hemolytic activity)
Method in brief: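 Human erythrocytes in saline (2×10^7/ml) were incubated with serially diluted compound at 37 °C for 30 min, then centrifuged. Released hemoglobin was read as A540 against 0.1% Triton X-100 as full hemolysis. EH50 is the interpolated concentration giving 50% of the control A540.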

[13] = Table 2A, RPMI 1640, pH 7.0, A531 at most 20% of control

In the case of `CC1OC(O[C@H]2/C=C/C=C/C=C/C=C/CC/C=C/C=C/[C@H](C)[C@@H](O)[C@@H](C)[C@H](C)OC(=O)C[C@H](O)C[C@H](O)C[C@H](O)CC[C@@H](O)[C@H](O)CC3(O)C[C@H](O)[C@@H](C(=O)O)[C@H](C2)O3)C(O)C(NC(=O)[C@H](N)CCC(=O)OC(C)(C)C)C1O` (stereo partly drawn) [Compound N37, N-D-(O-tert-butyl)glutamylnystatin A1], the “MIC Trichoderma viride LOCK E159” value [1] is reported as 32 µg/mL (≈ 28.8 µM), the “MIC Candida dubliniensis CBS 7987” value [2] is reported as 8 µg/mL (≈ 7.2 µM) and the “Antifungal activity Candida albicans ATCC 10231 IC50” value ([3]; Table 2A, RPMI 1640, pH 7.0, A531 50% of control) is reported as 2.73 µg/mL. The “Antifungal activity Candida albicans ATCC 10231 MIC” value [3, 13] was 4 µg/mL, the “MIC Candida albicans ATCC 10231” value ([3]; Table 2B) was 4 µg/mL (≈ 3.6 µM) and the “MIC Aspergillus niger LOCK E201” value [4] was 16 µg/mL (≈ 14.4 µM). The “MIC Candida lipolytica KKP 322” value [5] was 16 µg/mL (≈ 14.4 µM), the “MIC Candida quilliermondii DSM 11947” value [6] was 16 µg/mL (≈ 14.4 µM) and the “Antifungal activity Candida krusei DSM 6128 MIC” value (Candida krusei DSM 6128) was 8 µg/mL. The “MIC Candida arborea KKP 319” value (Candida arborea KKP 319) was 32 µg/mL (≈ 28.8 µM), the “Antifungal activity Candida glabrata DSM 11226 MIC” value [7] was 8 µg/mL and the “MIC Candida pseudotropicalis KKP 324” value [8] was 8 µg/mL (≈ 7.2 µM). For the same compound, the “MIC Candida parapsilosis DSM 5784” value [9] was 16 µg/mL (≈ 14.4 µM), the “Antifungal activity Saccharomyces cerevisiae ATCC 9763 MIC” value [10, 13] was 4 µg/mL and the “MIC Saccharomyces cerevisiae ATCC 9763” value ([10]; Table 2B) was 4 µg/mL (≈ 3.6 µM). For the same compound, the “MIC Candida stellatoidea CBS 1905” value [11] was 8 µg/mL (≈ 7.2 µM), the “Antifungal activity Candida tropicalis KKP 334 MIC” value [12] was 4 µg/mL and the “MIC Candida albicans STY7” value (Candida albicans STY7) was 32 µg/mL (≈ 28.8 µM). The “MIC Candida albicans Gu5” value (Candida albicans Gu5) was 8 µg/mL (≈ 7.2 µM), the “MIC Candida albicans F5” value (Candida albicans F5) was 16 µg/mL (≈ 14.4 µM) and the “MIC Candida albicans Gu4” value (Candida albicans Gu4) was 8 µg/mL (≈ 7.2 µM). The “MIC Candida albicans 5674” value (Candida albicans 5674) was 32 µg/mL (≈ 28.8 µM), the “MIC Candida albicans STY31” value (Candida albicans STY31) was 32 µg/mL (≈ 28.8 µM) and the “MIC Candida albicans B3” value (Candida albicans B3) was 8 µg/mL (≈ 7.2 µM). For the same compound, the “MIC Candida albicans F2” value (Candida albicans F2) was 16 µg/mL (≈ 14.4 µM), the “MIC Candida albicans STY19” value (Candida albicans STY19) was 32 µg/mL (≈ 28.8 µM) and the “MIC Candida albicans B4” value (Candida albicans B4) was 8 µg/mL (≈ 7.2 µM). The “Cytotoxicity IC50 LLC-PK1” value (LLC-PK1) was 85.5 ± 4.30 µg/mL, the “Cytotoxicity IC50 HepG2” value (HepG2) was over 100 µg/mL and the “Cytotoxicity IC50 CCRF-CEM” value (CCRF-CEM) was over 100 µg/mL. For the same compound, the “% of hemolysis at the concentration 60 μg ml^−1” value (Human erythrocytes) was 0.04%.
